Test results: publication PMC3226707 (Journal of molecular biology, 2011)
Blank lines part the entries; values can stand above or below the molecule they belong to. Where no end group is shown, it is not given here.

Legend:
Act-EF34 = conditions: binding to Act-EF34; cited from earlier work
[1] = target: Act-EF34 (C-terminal EF hand domain of α-actinin, actinin-2 residues 823–894) (Homo sapiens, UniProt P35609); test: Isothermal titration calorimetry of palladin peptides with Act-EF34; assay type: binding; conditions: for ΔH / ΔG / stoichiometry of binding: ITC; for ΔH / ΔG: 27 °C; for ΔH: one-binding site model; for ΔG: calculated using standard thermodynamic equations; for stoichiometry of binding: Act-EF34 titrations
palladin peptide WT = target: T1, palladin peptide WT (Homo sapiens); test: ITC
T1 chain: Ac-HGQTPAAFLSALLPSQP

Molecule: AETAANRICKVLAVNQE [Actinin N-term]
Kd (Act-EF34): 0.568 ± 0.27 µM

Molecule: AVATVVAAVDMARVRE [Titin Zr1]
Kd (Act-EF34): 0.2 to 0.3 µM

Molecule: AVATVVAAVDQARVRE [Titin Zr7]
Kd (Act-EF34): 0.1 to 0.25 µM

Kd [1]: 15.7 ± 7.7 µM
ΔH [1]: -4.5 ± 0.2 kcal/mol
ΔG [1]: −6.6 kcal/mol*K
stoichiometry of binding [1]: ~1
Molecule: Ac-HGQTPAAFLSALLPSQP [Palladin (WT)]

Kd [1]: 19.5 ± 4 µM
ΔH [1]: -6.0 ± 0.2 kcal/mol
ΔG [1]: −6.5 kcal/mol*K
stoichiometry of binding [1]: ~1
Molecule: Ac-HGQTSAAFLSALLPSQP [Palladin (FX)]

Molecule: FVPKVVISAAKAKEQE [Titin Zr3]
Kd (Act-EF34): > 4 µM

Kd (palladin peptide WT): 15.7 µM
B1: Act-EF34 (alpha-actinin-2) 823-894 (protein)
chain: ADTDTAEQVIASFRILASDKPYILAEELRRELPPDQAQYCIKRMPAYSGPGSVPGALDYAAFSSALYGESDL
